# Measured values: patent publication US6833372B2, “Non-peptide GnRH agents, Pharmaceutical compositions, and methods for their use” (Pfizer, Inc., priority 2002, dated 2004)
# “And” between values parts separate entries of the source, which are not always exact repeats. Equal values may be shown once.
# Key:
# [1] = biological target: T1, human GnRH receptors (Homo sapiens, UniProt P30968); test: Radioligand binding: inhibition of 125I-GnRH-A binding to human GnRH receptor membranes; conditions: HEK 293 cell membranes
# T1 construct: expressed in transfected cells; host or cells: HEK 293 cells, stably transfected; membranes
# T1 sequence (P30968 1-328): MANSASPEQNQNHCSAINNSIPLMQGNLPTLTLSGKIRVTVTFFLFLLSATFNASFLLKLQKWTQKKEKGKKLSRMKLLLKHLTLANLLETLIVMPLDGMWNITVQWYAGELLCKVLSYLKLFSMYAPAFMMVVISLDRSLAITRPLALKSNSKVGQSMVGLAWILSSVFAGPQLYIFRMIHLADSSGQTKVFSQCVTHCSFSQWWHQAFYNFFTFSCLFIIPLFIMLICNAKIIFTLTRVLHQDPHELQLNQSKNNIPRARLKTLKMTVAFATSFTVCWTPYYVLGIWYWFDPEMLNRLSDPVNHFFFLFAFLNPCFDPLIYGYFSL
# Procedure, shortened: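 Membranes from rat pituitaries, or HEK 293 cells stably expressing mouse or human receptor, incubated 1 hour at room temperature with ~0.04-0.06 nM radioligand (HEPES pH 7.4, EDTA, MgCl2, BSA) and competitor at 0.1-10,000 nM. Bound ligand collected by GF/C filtration and counted; Ki derived from IC50 by Cheng-Prusoff.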
# [2] = biological target: T2, rat GnRH receptor (Rattus norvegicus, UniProt P30969); test: Radioligand binding: inhibition of 125I-GnRH-A binding to rat GnRH receptor (rat pituitary membranes); conditions: read-out: Ki (nM), Inhibition Binding of 125I-GnRH-A to GnRH Receptors
# T2 construct: or rat pituitaries (Pel Freez Biologicals, Rogers, Ark.) were homogenized; tissue Pel Freez Biologicals; host or cells: rat pituitaries (membrane preparation)
# T2 sequence (P30969 1-327): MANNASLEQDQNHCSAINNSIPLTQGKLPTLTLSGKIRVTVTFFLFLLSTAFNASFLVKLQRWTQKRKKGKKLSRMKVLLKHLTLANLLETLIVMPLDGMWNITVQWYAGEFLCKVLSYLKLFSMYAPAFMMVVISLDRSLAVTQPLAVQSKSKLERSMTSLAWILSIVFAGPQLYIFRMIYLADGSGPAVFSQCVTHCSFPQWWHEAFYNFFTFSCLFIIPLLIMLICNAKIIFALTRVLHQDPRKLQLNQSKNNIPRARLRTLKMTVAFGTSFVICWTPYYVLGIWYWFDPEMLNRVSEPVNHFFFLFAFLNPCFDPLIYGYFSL
# Protocol: HEK 293 cells containing mouse or human receptors, or rat pituitaries (Pel Freez Biologicals, Rogers, Ark.) were homogenized in buffer A containing: 50 mM Tris (pH 7.4), 0.32 M sucrose, 2 mM EGTA, 1 mM PMSF, 5 μg/ml aprotinen, 5 μg/ml Pepstatin A, and 1 μg/ml leupeptin. Homogenized cells were centrifuged at 4° C. at 20,000×g for 25 minutes, re-suspended in buffer A and re-centrifuged at 4° C. at 20,000×g for an additional 25 minutes. Total membrane protein was determined with a BCA kit (Pierce, Rockford, Ill.). Membranes were stored at −70° C. at a final membrane protein concentration of approximately 5 mg/ml.
# The radioiodinated agonist analog of GnRH, [des-Gly^10,D-Ala^6]GnRH ethylamide (^125I-GnRH-A), was used as the radioligand. […] The reaction mixture was vortexed and incubated for 1 minute at room temperature. After one minute, the mixture was vortexed and allowed to incubate for an additional minute. 2 ml of 0.5 M acetic acid/1% BSA was added to the reaction tube and the mixture was added to a C18 Sep-Pak cartridge. The cartridge was washed with subsequent washes of 5 ml H2O and 5 ml 0.5 M acetic acid and then eluted with 5×1 ml of 60% CH3CN/40% 0.5 M acetic acid. The eluate was diluted with 3× volume of HPLC buffer A (0.1% TFA in H2O) and loaded onto a C18 column. The iodinated product was eluted over 20-25 min with a gradient of 25-100% CH3CN containing 0.1% TFA. The radioactive fractions (750 μl/fraction) were collected into clean polypropylene tubes containing 100 μl of 10% BSA. Fractions were assessed for biological activity by radioligand binding. Specific activity of the radioligand was approximately 2200 Ci/mmol.
# Membranes were diluted to 0.01-0.5 mg/ml (depending upon the species of receptor) with assay buffer containing 50 mM HEPES (pH 7.4), 1 mM EDTA, 2.5 mM MgCl2, and 0.1% BSA. Membranes (diluted to utilize similar receptor numbers between assays) were incubated with approximately 0.04-0.06 nM ^125I-GnRH-A in the presence or absence of competing agents (0.1-10,000 nM) in a total volume of 200 μl in 96-well polypropylene plates for 1 hour at room temperature. Assays were stopped by rapid filtration onto 96-well GF/C filters soaked in 0.1% polyethylenimine (PEI) utilizing a Packard 96-well cell harvester. Filters were washed three times with ice-cold PBS (50 mM NaPO4, 0.9% NaCl, 2 mM MgCl2, and 0.02% NaN3, pH 7.4). 35 μl of scintillation cocktail was added to each filter well and filters were counted on a Packard Topcount. Control dose-response curves were generated to GnRH (0.1 nM-100 nM) in each competition binding experiment. Ki values were calculated from IC50 values according to Cheng et al., Biochemical Pharmacol. 22: 3099-3108, 1973. [formula]
# [3] = In vitro metabolism: disappearance of parent compound in human liver microsomes; type: in vitro ADME; conditions: 5 uM compound, 0.5 mg/ml protein, 2 mM NADPH, 30 minutes 37° C.
# Protocol: (§1) Human, rat, dog, and monkey liver microsomes were isolated by differential centrifugation. Specimens of human liver were obtained from the International Institute for the Advancement of Medicine (Scranton, Pa.). The disappearance of the parent compound was studied in a mixture containing 5 uM compound, 0.5 mg/ml microsomal protein, and 2 mM NADPH in 50 mM K phosphate buffer, pH 7.4. Samples were incubated for 30 minutes at 37° C. The reaction was terminated by the addition of acetonitrile and compounds analyzed by LC-MS as described above.
# [4] = In vitro metabolism: disappearance of parent compound in rat liver microsomes (male, female); type: in vitro ADME; conditions: 5 uM compound, 30 minutes 37° C.; for Fem. Rat (FR) % rem. 30′: female rat liver microsomes; for Male Rat (MR) % rem. 30′: male rat liver microsomes
# Protocol: as §1
# [5] = In vitro metabolism: disappearance of parent compound in dog liver microsomes; type: in vitro ADME; conditions: 5 uM compound, 30 minutes 37° C.
# Protocol: as §1
# [6] = In vitro metabolism: disappearance of parent compound in monkey liver microsomes; type: in vitro ADME; conditions: 5 uM compound, 30 minutes 37° C.
# Protocol: as §1
SMILES,Ki [1] [nM],Ki [2] [nM],Human % rem. 30′ [3],Fem. Rat (FR) % rem. 30′ [4],Male Rat (MR) % rem. 30′ [4] [%],Dog % rem. 30′ [5] [%],Monkey % rem. [6] [%]
COc1nc(NCCN(C)C(=O)c2ccc(Cc3cc4c(cc3C)C(C)(C)OC4(C)C)o2)nc(OC)c1NC(=O)c1ccc(Cc2cc3c(cc2C)C(C)(C)OC3(C)C)o1 [Example D2],14,11,76% and 83%,84% and 82%,–,–,–
"COc1nc(NCCN2CCOCC2)nc(OC)c1NC(=O)c1ccc(Cc2cc3c(cc2C)C(C)(C)OC3(C)C)o1 [Example D4, N-{4,6-dimethoxy-2-[(2-morpholin-4-ylethyl)amino]pyrimidin-5-yl}-5-[(1,1,3,3,6-pentamethyl-1,3-dihydro-2-benzofuran-5-yl)methyl]-2-furamide]",6,4.1,83%,76%,38,34,2
"COc1nc(NCCN2CCCCC2)nc(OC)c1NC(=O)c1ccc(Cc2cc3c(cc2C)C(C)(C)OC3(C)C)o1 [Example D6, N-{4,6-Dimethoxy-2-[(2-piperidin-1-ylethyl)amino]pyrimidin-5-yl}-5-[(1,1,3,3,6-pentamethyl-1,3-dihydro-2-benzofuran-5-yl)methyl]-2-furamide]",1.2,0.86,77%,90%,74,77,8
"COc1nc(NCCN(C)C)nc(OC)c1NC(=O)c1ccc(Cc2cc3c(cc2C)C(C)(C)OC3(C)C)o1 [Example D10, N-(2-{[2-(Dimethylamino)ethyl]amino}-4,6-dimethoxypyrimidin-5-yl)-5-[(1,1,3,3,6-pentamethyl-1,3-dihydro-2-benzofuran-5-yl)methyl]-2-furamide]",7.3,2.6,77%,79%,66,66,28
"COc1nc(NCCCCN(C)C)nc(OC)c1NC(=O)c1ccc(Cc2cc3c(cc2C)C(C)(C)OC3(C)C)o1 [Example D11, N-(2-{[4-(Dimethylamino)butyl]amino}-4,6-dimethoxy-pyrimidin-5-yl)-5-[(1,1,3,3,6-pentamethyl-1,3-dihydro-2-benzofuran-5-yl)methyl]-2-furamide]",1.1,0.5,62%,56%,42,56,20
"COc1nc(NCCN2CCNCC2)nc(OC)c1NC(=O)c1ccc(Cc2cc3c(cc2C)C(C)(C)OC3(C)C)o1 [Example D14, N-{4,6-Dimethoxy-2-[(2-piperazin-1-ylethyl)amino]-pyrimidin-5-yl}-5-[(1,1,3,3,6-pentamethyl-1,3-dihydro-2-benzofuran-5-yl)methyl]-2-furamide]",3.5,0.4,86%,90%,78,98,63
"COc1nc(N(CCCN)CCCN)nc(OC)c1NC(=O)c1ccc(Cc2cc3c(cc2C)C(C)(C)OC3(C)C)o1 [Example D16, N-{2-[Bis(3-aminopropyl)amino]-4,6-dimethoxypyrimidin-5-yl}-5-[(1,1,3,3,6-pentamethyl-1,3-dihydro-2-benzofuran-5-yl)methyl]-2-furamide]",6.5,1.1,76%,95%,34,97,66
"COc1nc(NCCCN2CCN(CCCN)CC2)nc(OC)c1NC(=O)c1ccc(Cc2cc3c(cc2C)C(C)(C)OC3(C)C)o1 [Example D18, N-[2-({3-[4-(3-Aminopropyl)piperazin-1-yl]propyl}amino)-4,6-dimethoxypyrimidin-5-yl}-5-[(1,1,3,3,6-pentamethyl-1,3-dihydro-2-benzofuran-5-yl)methyl]-2-furamide]",0.97,0.3,82%,97%,74,84,80
"COc1nc(N(CCCN2CCCCC2)CCCN2CCCCC2)nc(OC)c1NC(=O)c1ccc(Cc2cc3c(cc2C)C(C)(C)OC3(C)C)o1 [Example D21, N-{2-[Bis(3-piperidin-1-ylpropyl)amino]-4,6-dimethoxypyrimidin-5-yl}-5-[(1,1,3,3,6-pentamethyl-1,3-dihydro-2-benzofuran-5-yl)methyl]-2-furamide]",3.3,1.3,89%,89%,87,67,85
"COc1nc(NCCCN(C)C)nc(OC)c1NC(=O)c1ccc(Cc2c(C)cc3c(c2C)C(C)(C)CCO3)o1 [Example I3, N-(2-{[3-(Dimethylamino)propyl]amino}-4,6-dimethoxypyrimidin-5-yl)-5-[(4,4,5,7-tetramethyl-3,4-dihydro-2H-chromen-6-yl)methyl]-2-furamide]",36,22,–,–,–,–,–
